Here are results for 1 molecule from patent EP2662079A1 (Ordway Research Institute, Inc., priority 2012, dated 2013).

One test concerns U87MG cells. Nature of the test: Colony forming efficiency and flow cytometry. The class given is cell-based, human. The note with it: Tetrac for 1 h at 37°C. The method, then: U87MG cells were seeded at 10^6 cells/100 mm^2 dish and incubated at 37°C for 24 h. Adherent cells were trypsinized and washed once in ambient temperature PBS. Cells were then fixed in 70% ethanol, and stored overnight at 4°C. Cells were prepared for cell cycle analysis by first pelleting the cells (1000 rpm, 7 min, 4°C), and then resuspending the pellet in 1 mL of PBS containing 0.2 mg/mL propidium iodide (Boehringer Mannheim, Indianapolis, IN), with incubation in the dark for 30 min. Cells were then left overnight at 4°C in the dark. Cells were analyzed on a Coulter fluorescence-activated cell sorter (Coulter Electronics, Hialeah, FL). Cells were excited with a single 488 nm argon laser, and the resulting fluorescence was detected using a 585 nm filter. Linear red-orange FL3 data were collected (10,000 events per collection). The distribution of cells within the cell cycle was determined using a Coulter software program.
Background: A flow cytometer gives signals particle by particle.

The test system of the next test is GL261 cells. Nature of the test: Sublethal damage repair (SLDR), split-dose x-rays. Format: cell-based, murine. The method, then: SLDR was measured at 10% immediate survival level as determined from the acute single dose curve for both control and Tetrac-treated cells in both growth states (i.e. exponentially growing and plateau phase cells. Flasks were irradiated with one-half of the total dose and returned to the 37°C incubator. At increasing periods of time, flasks were removed, and given the second half of the immediate 10% survival dose. Survival was measured at 0, 0.5, 1.0, 1.5, 2.0, 3.0, 4.0, 6.0, 8.0, and 10.0 hours after the initial dose.
To investigate the effects of Tetrac on SLDR and PLDR, cells were chosen that had been given a one-hour treatment with Tetrac at two different times, i.e., at 70 and 270 hours post-seeding).

Test [1] deals with SKN-SH, SaOS2, and MCF7 cells. Kind of test: Proliferation of drug-sensitive and drug-resistant cancer cells (MTT assay). Format: cell-based. An excerpt: Cells were harvested and nuclear fractions prepared as described previously. Nucleoproteins, separated by gel electrophoresis, were immunoblotted with antibody to phosphorylated MAPK (pERK1 and pERK2, 44 and 42 kDa, respectively), followed by a second antibody linked to a luminescence-detection system. A β-action immunoblot of nuclear fractions serves as a control for gel loading in each part of this figure. […] The levels of FGF2 cDNA, shown in the top blot, were corrected for variations in GAPDH cDNA content, shown in the bottom blot, and the corrected levels of FGF2 are illustrated below in the graph (mean ±SE of mean; n = 2 experiments). […] Drug-sensitive and -resistant SKN-SH (Figures 13C-D), SaOS2 (Figures 13A-B), and MCF7 (Figures 13E-F) cells were subjected to treatment with increasing concentrations of Tetrac or Doxirubicin over a period of 4 days. Cell viability was then measured by MTT assay. […] The cells were treated for 24 h with each drug alone or the combination of both, after that, expression of drug resistance molecules was determined by Western blot using specific antibodies. […] The cells were incubated for 24 hours with doxorubicin in the absence or the presence of Tetrac, after that they were washed and then solubilized. […]

Another test has as its system MDA-MB-231 cells. Nature of the test: Cell proliferation in perfusion bellows cell culture system. Format: cell-based. Conditions: Homo sapiens, 10^-6 M (Tetrac equivalent), added at day 0, by day 9. The method, then:
Tetrac and nanoparticulate Tetrac. Tetrac was custom-synthesized by Peptido GMBH (Bembach, Germany). The proprietary Tetrac nanoparticle was custom-synthesized by covalently-bonding of the outer ring hydroxyl of Tetrac to PLGA via an intervening linker. […] Cell culture for definition of effects of Tetrac formulations on tumor cell proliferation. MDA-MB-231 cells were purchased from ATCC (Manassas, VA). Cells were maintained until use in DMEM that contained 10% FBS. The incubator conditions were 5% CO2/95% 02 and 37° C. The action of unmodified Tetrac and nanoparticulate on MDA-MB-231 cells was determined in a perfusion bellows cell culture system we have recently described for quantitating pharmaceutical agent pharmacodynamics in vitro. (See Lin et al., J Steroid Biochem Mol Biol 113: 182-188 (2009)). In brief, the cell culture system is a disposable bioreactor capable of high density cell culture for studies of anti-cancer drugs. Bellows-induced alternate flow of culture medium and air through porous matrices where cells are grown provides a relatively low shear, high aeration, foam-free culture environment. Medium level is raised and lowered to submerge and expose matrices to create a dynamic interface between air and media on the cell surface. […] Flakes thereafter were sampled at regular intervals (Figure 44), subjected to trypsinization and the harvested cells counted. […]

What is called inhibition is how much of the control response was suppressed. Turning to `O=C(O)Cc1cc(I)c(Oc2cc(I)c(O)c(I)c2)c(I)c1` [Tetrac, 3,3',5,5'-tetraiodothyroacetic acid], in the test on U87MG cells (flow cytometry), the G1 is given as 58.2 (± 12.2) %, the G2/M was 24.8 (± 2.8) %, the S is 15.4 (± 9.1) % and the sub-G1 population is given as 1.5 (± 0.2) %. Moreover, the colony forming efficiency in the test on U87MG cells (mean and 95% confidence limits) is 26.0 (± 6.1) %. Besides, the “repair of x-ray damage” value with GL261 cells (Tetrac 2uM, 6 to 8 hours post-irradiation (Figure 58)) was “no repair of x-ray damage”. Besides, in the test with GL261 cells (exponential Tetrac treated cells, 2 hours after the first dose), the recovery ratio was 1.8. The “factor by which Tetrac reduced SLDR” value with GL261 cells (exponential cells) was found to be 1.8. Moreover, the “survival relative to survival seen at 0 hours” value in the test with GL261 cells (plateau phase cells with Tetrac, 3 hours after the initial dose) is “approximately 36%”. Further, the “decrease in cellular repair (factor)” value with GL261 cells (plateau phase cells, three hours post-irradiation) is reported as roughly 3. For the same molecule, the “anti-proliferative activity in vitro against drug-sensitive and drug-resistant cells” value in test [1] (4 days, MTT (Figure 13)) is reported as “equivalent”. Moreover, the “cellular responses to doxorubicin, etoposide, cisplatin and TSA when combined with Tetrac” value in test [1] (resistant SKN-SH/R, MCF7/R and SaOS2/R cells (Figure 14)) is on record as “significantly enhanced”. Besides, the inhibition at 1 µM with MDA-MB-231 cells was greater than 30%.
